What was measured:
Format in all cases: cell-based
Bacillus cereus = test: Agar plate disc-diffusion, antibacterial inhibition zone; conditions: nutrient agar, 37° C., 48 hours, DMSO control zone subtracted
Description: (§1) The agar plate disc-diffusion method was applied. […] The discs were then placed onto the surface of agar plates (nutrient agar for bacteria and Sabouraud's dextrose agar for fungi) seeded with the test organism. Each plate contained 15 mL of the agar medium, previously seeded with 0.2 mL of the broth culture of each organism pregrown for 18 hours. The plates were incubated at 37° C. for 48 hours, and 72 hours for fungi. The inhibition zones was measured in mm. Discs impregnated with DMSO were used as a control, and its inhibition zone was subtracted from the tested compound actual inhibition zone.

Escherichia coli = test: as above; conditions: nutrient agar, 37° C., 48 hours, DMSO control zone subtracted
Description: as §1

Pseudomonas aeruginosa = test: as above; conditions: nutrient agar, 37° C., 48 hours, DMSO control zone subtracted
Description: as §1

Staphylococcus aureus = test: as above; conditions: nutrient agar, 37° C., 48 hours, DMSO control zone subtracted
Description: as §1

Aspergillus flavus = test: Agar plate disc-diffusion, antifungal inhibition zone; conditions: Sabouraud's dextrose agar, 72 hours, DMSO control zone subtracted
Description: as §1

[1] = tested on: Chrysosporium keratinophilum; test: as above; conditions: Sabouraud's dextrose agar, 72 hours, DMSO control zone subtracted
Description: as §1

[2] = A = concentration of comp. = 10,000 μL
[3] = B = concentration of comp. = 30,000 μL
[4] = C = concentration of comp. = 50,000 μL

In the case of `COc1ccc(-c2nc(-c3ccc(Br)cc3)c(-c3ccc(Br)cc3)n2CCCCC(=O)O)cc1` [V, 5-(4,5-bis(4-bromophenyl)-2-(4-methoxyphenyl)-1H-imidazol-1-yl)pentanoic acid], the “inhibition zone, Bacillus Cereus, A” value (Bacillus cereus; [2]) is reported as 28 mm, the “inhibition zone, Bacillus Cereus, B” value (Bacillus cereus; [3]) is reported as 29 mm and the “inhibition zone, Bacillus Cereus, C” value (Bacillus cereus; [4]) is reported as 39 mm. For the same compound, the “inhibition zone, Escherichia coli, A” value (Escherichia coli; [2]) was 30 mm, the “inhibition zone, Escherichia coli, B” value (Escherichia coli; [3]) was 40 mm and the “inhibition zone, Escherichia coli, C” value (Escherichia coli; [4]) was 55 mm. For the same compound, the “inhibition zone, Pseudomonas aeruginosa, A” value (Pseudomonas aeruginosa; [2]) was 26 mm, the “inhibition zone, Pseudomonas aeruginosa, B” value (Pseudomonas aeruginosa; [3]) was 29 mm and the “inhibition zone, Pseudomonas aeruginosa, C” value (Pseudomonas aeruginosa; [4]) was 40 mm. For the same compound, the “inhibition zone, Staphylococcus aureus, A” value (Staphylococcus aureus; [2]) was 15 mm, the “inhibition zone, Staphylococcus aureus, B” value (Staphylococcus aureus; [3]) was 22 mm and the “inhibition zone, Staphylococcus aureus, C” value (Staphylococcus aureus; [4]) was 31 mm. For the same compound, the “inhibition zone, Aspergillus flavus, A” value (Aspergillus flavus; [2]) was 22 mm, the “inhibition zone, Aspergillus flavus, B” value (Aspergillus flavus; [3]) was 25 mm and the “inhibition zone, Aspergillus flavus, C” value (Aspergillus flavus; [4]) was 33 mm. The “inhibition zone, Chrysosporium keratinophilum, A” value [1, 2] was 26 mm, the “inhibition zone, Chrysosporium keratinophilum, B” value [1, 3] was 27 mm and the “inhibition zone, Chrysosporium keratinophilum, C” value [1, 4] was 45 mm.

— patent US11919867B1, “5-(4,5-bis(4-bromophenyl)-2-(4-methoxyphenyl)-1H-imidazol-1-yl)pentanoic acid as an antimicrobial compound” (KING FAISAL UNIVERSITY, priority 2023, dated 2024)
